Read-outs that look alike come from different tables or passages of the source.
What was measured:
NK-1 = biological target: T1, NK-1 (Homo sapiens, UniProt P25103); test: NK1 radioligand binding assay; conditions: U373 membrane preparation, [125I]Substance P
T1 construct: 30 ul/well of a 2×U373 membrane preparation; endogenous in cells; host or cells: U373 cells (crude membrane preparation)
Description: (§1) NK-1 Binding assay. Crude membrane suspensions were prepared for the NK1 and SERT radioligand binding assays from U373 cells or recombinant HEK-293 cells expressing hSERT, respectively. Cells were harvested from T-175 flasks as follows. The medium is removed from the flasks and the cells rinsed with HBSS without Ca and without Mg. The cells are then incubated for 5-10 minutes in 10 mM Tris-Cl, pH 7.5, 5 mM EDTA before the cells are lifted with a combination of pipetting and scraping, as needed. To prepare membranes, the cell suspension is collected into centrifuge bottles and homogenized for 30 seconds with a Polytron homogenizer. The suspension is centrifuged for 30 min @ 32,000×g, 4° C., then the supernatant is decanted and the pellet resuspended and homogenized in 50 mM Tris-Cl, pH 7.5, 1 mM EDTA for 10 seconds. The suspension is then centrifuged again for 30 min @ 32,000×g, 4° C. The supernatant is decanted and the pellet resuspended in 50 mM Tris-Cl, pH 7.5, 1 mM EDTA and briefly homogenized. A Bradford assay (Bio-rad) is performed and the membrane preparation diluted to 2 mg/ml with 50 mM Tris-Cl, pH 7.5, 1 mM EDTA. Aliquots are prepared, and then frozen and stored at −80° C.
NK1 radioligand binding assay. Compounds are dissolved in 100% DMSO at a concentration 100× the desired highest assay concentration, serially diluted 1:3 in 100% DMSO, and 0.6 ul/well of each solution is dispensed to a Nunc polypropylene, round bottom, 384 well plate. 100% inhibition is defined with 0.6 ul/well of 1 mM L-733,060 (Sigma L-137) dissolved in DMSO. 30 ul/well of a 2×U373 membrane preparation (267 ug/ml in 100 mM Tris-Cl, pH 7.5, 6 mM MgCl2, 0.2% (v/v) Sigma mammalian protease inhibitor cocktail (Sigma P-8340), and 4 ug/ml chymostatin, Sigma C-7268) and 30 ul/well of a 2× radioligand solution (400 pM [^125I]Substance P (Perkin Elmer NEX-190) in 1% (w/v) BSA (Sigma A-2153), 0.1 mg/ml bacitracin, Sigma B-0125) are added to the well and the reaction incubated for 1 hour at room temperature. The contents of the assay plate are then transferred to a Millipore MultiscreenHTS GF/B filter plate which has been pretreated with 0.5% PEI for at least one hour. The plate is vacuum filtered and washed with 7 washes of 100 ul/well of 20 mM Tris-Cl, pH 7.5, 0.5% (w/v) BSA chilled to 4° C. The filtration and washing is completed in less than 90 s. The plates are air-dried overnight, 12 ul/well of MicroScint scintillation fluid added, and the plates counted in a Trilux.
(§2) Data analysis. The raw data are normalized to percent inhibition using control wells defining 0% (DMSO only) and 100% (selective inhibitor) inhibition which are run on each plate. Each plate is run in triplicate, and the concentration response curve thus generated is fit using the four-parameter dose response equation, Y=Bottom+(Top-Bottom)/(1+10̂((LogIC50−X)*HillSlope)) in order to determine the IC50 value for each compound. The radioligand concentration chosen for each assay corresponds to the Kd concentration determined through saturation binding analysis for each assay.

hSERT = biological target: T2, hSERT (Homo sapiens, UniProt P31645); test: SERT radioligand binding assay
T2 construct: expressed in transfected cells; host or cells: HEK-293 cells (crude membrane preparation)
T2 sequence (P31645 whole entry): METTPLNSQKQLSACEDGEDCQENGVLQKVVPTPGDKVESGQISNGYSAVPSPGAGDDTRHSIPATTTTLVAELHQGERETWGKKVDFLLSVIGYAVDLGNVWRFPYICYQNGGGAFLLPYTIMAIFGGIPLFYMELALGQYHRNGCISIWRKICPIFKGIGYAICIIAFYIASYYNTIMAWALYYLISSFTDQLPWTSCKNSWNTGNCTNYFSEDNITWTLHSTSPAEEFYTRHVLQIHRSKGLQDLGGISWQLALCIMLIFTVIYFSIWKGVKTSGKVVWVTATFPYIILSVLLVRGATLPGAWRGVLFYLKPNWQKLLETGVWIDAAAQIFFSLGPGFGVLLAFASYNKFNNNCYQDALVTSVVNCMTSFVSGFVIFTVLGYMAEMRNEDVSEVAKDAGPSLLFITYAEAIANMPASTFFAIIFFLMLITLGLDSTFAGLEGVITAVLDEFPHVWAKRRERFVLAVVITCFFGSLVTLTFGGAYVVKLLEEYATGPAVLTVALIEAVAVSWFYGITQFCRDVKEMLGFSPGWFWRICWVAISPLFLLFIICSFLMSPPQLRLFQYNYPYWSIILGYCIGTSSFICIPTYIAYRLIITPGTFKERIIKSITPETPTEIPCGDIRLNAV
Description: as §1
SERT radioligand binding assay. Compounds are dissolved in 100% DMSO at a concentration 100× the desired highest assay concentration, serially diluted 1:3 in 100% DMSO, and 0.4 ul/well of each solution is dispensed to a Nunc polypropylene, round bottom, 384 well plate. 100% inhibition is defined with 0.4 ul/well of 1 mM fluoxetine (Sigma F-132) dissolved in DMSO. 20 ul/well of a 2×HEK-hSERT membrane preparation (15 ug/ml in 50 mM Tris-Cl, pH 7.5, 120 mM NaCl, 5 mM KCl) and 20 ul/well of a 2× radioligand solution (520 pM [^125I]RTI-55 (Perkin-Elmer NEX-272) in 50 mM Tris-Cl, pH 7.5, 120 mM NaCl, 5 mM KCl) are added to each well and the reaction incubated for 1 hour at room temperature. The contents of the assay plate are then transferred to a Millipore MultiscreenHTS GF/B filter plate which has been pretreated with 0.5% PEI for at least one hour. The plate is vacuum filtered and washed with 7 washes of 100 ul/well of 50 mM Tris-Cl, pH 7.5, 120 mM NaCl, 5 mM KCl chilled to 4° C. The filtration and washing is completed in less than 90 s. The plates are air-dried overnight, 12 ul/well of MicroScint scintillation fluid added, and the plates counted in a Trilux.
as §2

[1] = HEK-hSERT membrane preparation, [125I]RTI-55, Table 1, read-out: SERT IC50
[2] = HEK-hSERT membrane preparation, [125I]RTI-55, Table 1a, single enantiomers, read-out: SERT IC50

T1 sequence (P25103 whole entry): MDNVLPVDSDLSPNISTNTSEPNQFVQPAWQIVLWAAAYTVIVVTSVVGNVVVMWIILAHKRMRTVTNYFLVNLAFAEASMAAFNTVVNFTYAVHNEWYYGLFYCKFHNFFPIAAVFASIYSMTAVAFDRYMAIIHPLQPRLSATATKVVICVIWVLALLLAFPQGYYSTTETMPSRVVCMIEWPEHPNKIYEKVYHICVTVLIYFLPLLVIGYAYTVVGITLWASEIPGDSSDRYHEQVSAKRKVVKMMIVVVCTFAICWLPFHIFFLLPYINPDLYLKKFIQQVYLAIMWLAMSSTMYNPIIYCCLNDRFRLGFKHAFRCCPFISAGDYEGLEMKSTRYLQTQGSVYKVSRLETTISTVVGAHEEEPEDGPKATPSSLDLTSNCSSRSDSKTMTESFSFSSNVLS

SMILES	IC50 (NK-1; Table 1)	IC50 (hSERT; [1])	other results
Cc1cc(COCC2(c3ccccc3)CCN(C)CC2)c2ccccc2n1 [Example 2, 2-methyl-4-(((1-methyl-4-phenylpiperidin-4-yl)methoxy)methyl)quinoline]	> 300 nM	–	IC50 (hSERT): 0.01 to 100 nM
Cc1cc(C(C)OCC2(c3ccccc3)CCN(C)CC2)c2ncccc2c1 (stereo not drawn) [Example 42]	0.01 to 100 nM	0.01 to 100 nM	–
CC(OCC1(c2ccccc2)CCN(C)CC1)c1cc(C(F)(F)F)cc2cccnc12 (single isomer, unassigned) [Example 72]	–	–	IC50 (NK-1; Table 1a, single enantiomers): > 300 nM; IC50 (hSERT): 0.01 to 100 nM
CC(OCC1(c2ccc(F)cc2)CCNCC1)c1cc(C(F)(F)F)cc2cccnc12 (single isomer, unassigned) [Example 68]	–	–	IC50 (NK-1; Table 1a, single enantiomers): 0.01 to 100 nM; IC50 (hSERT; [2]): 0.01 to 100 nM
Cc1cc(C(C)OCC2(c3ccc(F)cc3)CCN(C)CC2)c2nc(F)ccc2c1 (stereo not drawn) [Example 52]	0.01 to 100 nM	0.01 to 100 nM	–
COc1ccc2nc(COCC3(c4ccccc4)CCN(C)CC3)ccc2c1 [Example 12]	> 300 nM	–	IC50 (hSERT): 0.01 to 100 nM
Cc1cc(C(C)OCC2(c3ccc(F)cc3)CCN(C)CC2)c2ncccc2c1 (stereo not drawn) [Example 40]	0.01 to 100 nM	0.01 to 100 nM	–
CN1CCC(COCc2cc(N)c3ccccc3n2)(c2ccccc2)CC1 [Example 8]	> 300 nM	–	IC50 (hSERT): 0.01 to 100 nM
CC(OCC1(c2ccc(F)cc2)CCN(C)CC1)c1cc(C(F)(F)F)cc2cccnc12 (single isomer, unassigned) [Example 69]	–	–	IC50 (NK-1; Table 1a, single enantiomers): > 300 nM; IC50 (hSERT; read-out: SERT IC50, HEK-hSERT membrane preparation, [125I]RTI-55, Table 1a, single enantiomers): 0.01 to 100 nM
CC(OCC1(c2ccc(F)cc2)CCNCC1)c1cc(C(F)(F)F)cc2cccnc12 (single isomer, unassigned) [Example 67]	–	–	IC50 (NK-1; Table 1a, single enantiomers): > 300 nM; IC50 (hSERT; [2]): 0.01 to 100 nM
Cc1cc(C(C)OCC2(c3ccc(F)cc3)CCN(C)CC2)c2[nH]c(=O)ccc2c1 (stereo not drawn) [Example 53]	0.01 to 100 nM	0.01 to 100 nM	–
N#Cc1ccc(-c2cc(COCC3(c4ccccc4)CCNCC3)nc3ccccc23)cc1 [Example 15, 4-(2-(((4-phenylpiperidin-4-yl)methoxy)methyl)quinolin-4-yl)benzonitrile]	> 300 nM	0.01 to 100 nM	–
Cc1cc(COCC2(c3ccccc3)CCNCC2)c2ccccc2n1 [Example 1, 2-methyl-4-(((4-phenylpiperidine-4-yl)methoxy)methyl)quinoline]	> 300 nM	0.01 to 100 nM	–
Cc1cc(COCC2(c3ccc(F)cc3F)CCN(C)CC2)c2ncccc2c1 [Example 28]	100 to 300 nM	–	IC50 (hSERT): 0.01 to 100 nM

Further lines, with some results ahead:

IC50 (NK-1; Table 1)	IC50 (hSERT; [1])	SMILES	other results
0.01 to 100 nM	0.01 to 100 nM	Cc1cc(C(C)OCC2(c3ccccc3)CCNCC2)c2ncccc2c1 (stereo not drawn) [Example 41]	–
> 300 nM	0.01 to 100 nM	Cc1cccc2nc(COCC3(c4ccccc4)CCNCC3)cc(C)c12 [Example 21]	–
0.01 to 100 nM	0.01 to 100 nM	CC(OCC1(c2ccc(F)cc2F)CCNCC1)c1cc(C(F)(F)F)cc2cccnc12 (stereo not drawn) [Example 37]	–
> 300 nM	0.01 to 100 nM	CN(C)c1cc(COCC2(c3ccccc3)CCNCC2)nc2ccccc12 [Example 16, N,N-dimethyl-2-(((4-phenylpiperidin-4-yl)methoxy)methyl)quinolin-4-amine]	–
100 to 300 nM	0.01 to 100 nM	Cc1cc(COCC2(c3ccccc3)CCNCC2)nc2ccccc12 [Example 3]	–
0.01 to 100 nM	0.01 to 100 nM	CC(OCC1(c2ccccc2)CCNCC1)c1cc(C(F)(F)F)cc2cccnc12 (stereo not drawn) [Example 35]	–
> 300 nM	0.01 to 100 nM	N#Cc1ccc(-c2cc(COCC3(c4ccccc4)CCNCC3)c3ncccc3c2)cc1 [Example 24]	–
> 300 nM	0.01 to 100 nM	FC(F)(F)c1ccnc2ccc(COCC3(c4ccccc4)CCNCC3)cc12 [Example 47, 6-(((4-phenylpiperidin-4-yl)methoxy)methyl)-4-(trifluoromethyl)quinoline]	–
> 300 nM	0.01 to 100 nM	c1ccc(C2(COCc3ccc4ccccc4n3)CCNCC2)cc1 [Example 5]	–
0.01 to 100 nM	0.01 to 100 nM	Cc1cc(COCC2(c3ccc(F)cc3F)CCNCC2)c2ncccc2c1 [Example 27]	–

Source: US20090018163A1, “Substituted Heterocyclic Ethers and Their Use in CNS Disorders” (Bristol-Myers Squibb Company, priority 2007, published 2009)
